SMILES strings stand for the structures.

The target in one experiment is T1, Recombinant human liver GK1 (GST-GK) (Homo sapiens, UniProt P35557).
T1 construct: made in house; host or cells: E. coli
T1 sequence (P35557 1-466 isoform P35557-2): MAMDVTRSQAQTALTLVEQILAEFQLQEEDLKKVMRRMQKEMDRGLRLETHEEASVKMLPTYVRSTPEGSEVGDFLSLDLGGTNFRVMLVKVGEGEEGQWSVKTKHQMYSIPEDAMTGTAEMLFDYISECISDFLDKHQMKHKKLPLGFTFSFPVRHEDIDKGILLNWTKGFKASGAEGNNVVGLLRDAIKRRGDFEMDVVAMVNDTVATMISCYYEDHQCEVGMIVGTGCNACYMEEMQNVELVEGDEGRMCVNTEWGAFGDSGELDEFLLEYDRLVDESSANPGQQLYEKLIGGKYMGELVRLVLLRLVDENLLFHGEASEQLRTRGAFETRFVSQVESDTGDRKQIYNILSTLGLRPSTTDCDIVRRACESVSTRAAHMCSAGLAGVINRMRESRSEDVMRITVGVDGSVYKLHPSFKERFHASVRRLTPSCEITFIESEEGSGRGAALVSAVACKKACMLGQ
Briefly: In vitro glucokinase activity, G6PDH-coupled spectrophotometric assay. In kind it is biochemical. Particulars: 5 mM D-glucose, 30° C., pH 7.1. The method, then:
Glucokinase In Vitro Assay Protocol: Glucokinase (GK) was assayed by coupling the production of glucose-6-phosphate to the generation of NADH with glucose-6-phosphate dehydrogenase (G6PDH, 0.75-1 kunits/mg; Boehringer Mannheim, Indianapolis, Ind.) from Leuconostoc mesenteroides as the coupling enzyme (Scheme 2).
Recombinant human liver GK1 was expressed in E. coli as a glutathione S-transferase fusion protein (GST-GK) [Liang et al, 1995] and was purified by chromatography over a glutathione-Sepharose 4B affinity column using the procedure provided by the manufacturer (Amersham Pharmacia Biotech, Piscataway, N.J.).
The assay was conducted at 30° C. in a flat bottom 96-well tissue culture plate from Costar (Cambridge, Mass.) with a final incubation volume of 120 μL. The incubation reaction contained the following: 25 mM Hepes buffer (pH 7.1), 25 mM KCl, 5 mM D-glucose, 1 mM ATP, 1.8 mM NAD, 2 mM MgCl2, 1 μM sorbitol-6-phosphate, 1 mM dithiothreitol, test drug or 10% dimethylsulfoxide, ˜7 units/ml G6PDH, and GK (see below). All organic reagents were >98% pure and were from Boehringer Mannheim with the exceptions of D-glucose and Hepes which were from Sigma Chemical Co, St Louis, Mo. Test compounds were dissolved in dimethylsulfoxide and were added to the incubation reaction minus GST-GK in a volume of 12 μL to yield a final dimethylsulfoxide concentration of 10%. This mix was pre-incubated in the temperature controlled chamber of a SPECTRAmax 250 microplate spectrophotometer (Molecular Devices Corporation, Sunnyvale, Calif.) for 10 minutes to allow temperature equilibrium and then the reaction was started by the addition of 20 μL GST-GK.
After addition of enzyme, the increase in optical density (OD) at 340 nm was monitored spectrophotometrically to determine the rate of change (OD340 per min). The GK activity (OD340/min) in control wells (10% dimethylsulfoxide minus GK activators) was compared with the activity in wells containing test GK activators, and the concentration of activator that produced a 50% increase in the activity of GK, i.e., the SC1.5, was calculated.
As for `O=C1C(=O)N(C(CC2CCCC2)C(=O)Nc2cnccn2)c2ccccc21` (stereo not shown) [Example 1, 3-Cyclopentyl-2-(2,3-dioxo-2,3-dihydro-indol-1-yl)-N-pyrazin-2-yl-propionamide], the “SC1.5 (concentration of activator that produced a 50% increase in the activity of GK)” value came out at 18.64 µM. Regarding `O=C(Nc1cnccn1)C(CC1CCCC1)N1C(=O)Cc2ccccc21` (stereo not shown) [Example 2, 3-Cyclopentyl-2-(2-oxo-2,3-dihydro-indol-1-yl)-N-pyrazin-2-yl-propionamide], the “SC1.5 (concentration of activator that produced a 50% increase in the activity of GK)” value came to 5.93 µM. Consider `O=C(Nc1nccs1)C(CC1CCCC1)N1C(=O)Cc2ccccc21` (stereo not shown) [Example 3, 3-Cyclopentyl-2-(2-oxo-2,3-dihydro-indol-1-yl)-N-thiazol-2-yl-propionamide], for which the “SC1.5 (concentration of activator that produced a 50% increase in the activity of GK)” value was 3.3 µM. `O=C1C(=O)N(C(CC2CCCC2)C(=O)Nc2nccs2)c2ccccc21` (stereo not shown) [Example 4, 3-Cyclopentyl-2-(2,3-dioxo-2,3-dihydro-indol-1-yl)-N-thiazol-2-yl-propionamide]: the “SC1.5 (concentration of activator that produced a 50% increase in the activity of GK)” value was 5.21 µM. Take `O=C1C(=O)N(C(CC2CCCC2)C(=O)Nc2ccccn2)c2ccccc21` (stereo not shown) [Example 6, 3-Cyclopentyl-2-(2,3-dioxo-2,3-dihydro-indol-1-yl)-N-pyridin-2-yl-propionamide]: the “SC1.5 (concentration of activator that produced a 50% increase in the activity of GK)” value worked out at 5.19 µM.

With `Cn1ccc(NC(=O)C(CC2CCCC2)N2C(=O)Cc3ccccc32)n1` (stereo not shown) [Example 7, 3-Cyclopentyl-N-(1-methyl-1H-pyrazol-3-yl)-2-(2-oxo-2,3-dihydro-indol-1-yl)-propionamide], the “SC1.5 (concentration of activator that produced a 50% increase in the activity of GK)” value is 17.55 µM.

Consider `O=C(Nc1ccccn1)C(CC1CCCC1)N1C(=O)Cc2ccccc21` (stereo not shown) [Example 8, 3-Cyclopentyl-2-(2-oxo-2,3-dihydro-indol-1-yl)-N-pyridin-2-yl-propionamide], for which the “SC1.5 (concentration of activator that produced a 50% increase in the activity of GK)” value worked out at 4.93 µM.

For the compound `CC(C)CC(C(=O)Nc1nccs1)N1C(=O)Cc2ccccc21` (stereo not shown) [Example 11, 4-Methyl-2-(2-oxo-2,3-dihydro-indol-1-yl)-pentanoic acid thiazol-2-ylamide], the “SC1.5 (concentration of activator that produced a 50% increase in the activity of GK)” value was found to be 16.22 µM. `CC(C)CC(C(=O)Nc1ccccn1)N1C(=O)Cc2ccccc21` (stereo not shown) [Example 12, 4-Methyl-2-(2-oxo-2,3-dihydro-indol-1-yl)-pentanoic acid pyridin-2-ylamide]: the “SC1.5 (concentration of activator that produced a 50% increase in the activity of GK)” value came out at 18.09 µM. With `O=C1C(=O)N(C(CC2CCCC2)C(=O)Nc2cnccn2)c2cccc(Cl)c21` (stereo not shown) [Example 13, 2-(4-Chloro-2,3-dioxo-2,3-dihydro-indol-1-yl)-3-cyclopentyl-N-pyrazin-2-yl-propionamide], the “SC1.5 (concentration of activator that produced a 50% increase in the activity of GK)” value was 6.94 µM.

In the case of `O=C1C(=O)N(C(CC2CCCC2)C(=O)Nc2ccccn2)c2cccc(Cl)c21` (stereo not shown) [Example 14, 2-(4-Chloro-2,3-dioxo-2,3-dihydro-indol-1-yl)-3-cyclopentyl-N-pyridin-2-yl-propionamide], the “SC1.5 (concentration of activator that produced a 50% increase in the activity of GK)” value is 1.9 µM. Still for that read-out and setting: in the case of `Cn1ccc(NC(=O)C(CC2CCCC2)N2C(=O)C(=O)c3c(Cl)cccc32)n1` (stereo not shown) [Example 15, 2-(4-Chloro-2,3-dioxo-2,3-dihydro-indol-1-yl)-3-cyclopentyl-N-(1-methyl-1H-pyrazol-3-yl)-propionamide] it was 6.5 µM; in that of `O=C1C(=O)N(C(CC2CCCC2)C(=O)Nc2nccs2)c2cccc(Cl)c21` (stereo not shown) [Example 16, 2-(4-Chloro-2,3-dioxo-2,3-dihydro-indol-1-yl)-3-cyclopentyl-N-thiazol-2-yl-propionamide], 3.91 µM. Regarding `CC(C)CC(C(=O)Nc1ccccn1)N1C(=O)C(=O)c2c(Cl)cccc21` (stereo not shown) [Example 18, 2-(4-Chloro-2,3-dioxo-2,3-dihydro-indol-1-yl)-4-methyl-pentanoic acid pyridin-2-ylamide], the “SC1.5 (concentration of activator that produced a 50% increase in the activity of GK)” value is 13.42 µM. Regarding `CC(C)CC(C(=O)Nc1nccs1)N1C(=O)C(=O)c2c(Cl)cccc21` (stereo not shown) [Example 20, 2-(4-Chloro-2,3-dioxo-2,3-dihydro-indol-1-yl)-4-methyl-pentanoic acid thiazol-2-ylamide], the “SC1.5 (concentration of activator that produced a 50% increase in the activity of GK)” value worked out at 7.72 µM.

Consider `O=C(Nc1ccccn1)C(CC1CCCC1)N1C(=O)Cc2c(Cl)cccc21` (stereo not shown) [Example 21, 2-(4-Chloro-2-oxo-2,3-dihydro-indol-1-yl)-3-cyclopentyl-N-pyridin-2-yl-propionamide], for which the “SC1.5 (concentration of activator that produced a 50% increase in the activity of GK)” value stood at 1.23 µM.

Consider `O=C(Nc1nccs1)C(CC1CCCC1)N1C(=O)Cc2c(Cl)cccc21` (stereo not shown) [Example 22, 2-(4-Chloro-2-oxo-2,3-dihydro-indol-1-yl)-3-cyclopentyl-N-thiazol-2-yl-propionamide], for which the “SC1.5 (concentration of activator that produced a 50% increase in the activity of GK)” value stood at 1.98 µM.

In the case of `Cn1ccc(NC(=O)C(CC2CCCC2)N2C(=O)Cc3c(Cl)cccc32)n1` (stereo not shown) [Example 23, 2-(4-Chloro-2-oxo-2,3-dihydro-indol-1-yl)-3-cyclopentyl-N-(1-methyl-1H-pyrazol-3-yl)-propionamide], the “SC1.5 (concentration of activator that produced a 50% increase in the activity of GK)” value was 7.4 µM.

For `O=C(Nc1cnccn1)C(CC1CCCC1)N1C(=O)Cc2c(Cl)cccc21` (stereo not shown) [Example 24, 2-(4-Chloro-2-oxo-2,3-dihydro-indol-1-yl)-3-cyclopentyl-N-pyrazin-2-yl-propionamide], the “SC1.5 (concentration of activator that produced a 50% increase in the activity of GK)” value amounted to 2.66 µM. As to `CC(C)CC(C(=O)Nc1cnccn1)N1C(=O)Cc2c(Cl)cccc21` (stereo not shown) [Example 25, 2-(4-Chloro-2-oxo-2,3-dihydro-indol-1-yl)-4-methyl-pentanoic acid pyrazin-2-ylamide], the “SC1.5 (concentration of activator that produced a 50% increase in the activity of GK)” value worked out at 16.78 µM.

The experiment is the same for the next values; noted with them: @ 30 uM; 5 mM D-glucose, 30° C.
What is called fold induction is the ratio of treated to control signal. As to `Cn1ccc(NC(=O)C(CC2CCCC2)N2C(=O)C(=O)c3ccccc32)n1` (stereo not shown) [Example 5, 3-Cyclopentyl-2-(2,3-dioxo-2,3-dihydro-indol-1-yl)-N-(1-methyl-1H-pyrazol-3-yl)-propionamide], the fold induction at 30 µM was determined as 1.47. In the case of `CC(C)CC(C(=O)Nc1ccccn1)N1C(=O)C(=O)c2ccccc21` (stereo not shown) [Example 9, 2-(2,3-Dioxo-2,3-dihydro-indol-1-yl)-4-methyl-pentanoic acid pyridin-2-ylamide], the fold induction at 30 µM worked out at 1.33. As for `CC(C)CC(C(=O)Nc1nccs1)N1C(=O)C(=O)c2ccccc21` (stereo not shown) [Example 10, 2-(2,3-Dioxo-2,3-dihydro-indol-1-yl)-4-methyl-pentanoic acid thiazol-2-ylamide], the fold induction at 30 µM amounted to 1.2. Turning to `CC(C)CC(C(=O)Nc1cnccn1)N1C(=O)C(=O)c2c(Cl)cccc21` (stereo not shown) [Example 17, 2-(4-Chloro-2,3-dioxo-2,3-dihydro-indol-1-yl)-4-methyl-pentanoic acid pyrazin-2-ylamide], the fold induction at 30 µM amounted to 1.39. Regarding `CC(C)CC(C(=O)Nc1ccn(C)n1)N1C(=O)C(=O)c2c(Cl)cccc21` (stereo not shown) [Example 19, 2-(4-Chloro-2,3-dioxo-2,3-dihydro-indol-1-yl)-4-methyl-pentanoic acid (1-methyl-1H-pyrazol-3-yl)-amide], the fold induction at 30 µM amounted to 1.24.

Values taken from US20120142705A1, “ISATIN AND OXINDOLE COMPOUNDS” (priority 2010, published 2012).
